Experimental data as given in Sander's compilation of Henry's law constants (doi:10.1021/es00169a013).

Assay: Henry solubility constant Hcp at 298.15 K (mol/(m3 Pa))
Conditions: reference: Dunnivant et al. (1988)

First: Clc1cccc(-c2cccc(Cl)c2)c1 [3,3'-dichlorobiphenyl]
Second: Clc1cccc(-c2cc(Cl)ccc2Cl)c1 [2,3',5-trichlorobiphenyl]
The “Henry solubility constant Hcp” value of the first is higher: 0.042 for the first, 0.03 for the second.

Going from `Clc1ccc(Cl)c(-c2cc(Cl)c(Cl)cc2Cl)c1` [2,2',4,5,5'-pentachlorobiphenyl] to `Clc1cc(Cl)c(-c2cc(Cl)c(Cl)cc2Cl)cc1Cl` [2,2',4,4',5,5'-hexachlorobiphenyl], the “Henry solubility constant Hcp” value rises from 0.039 to 0.075.

Going from `Clc1ccc(Cl)c(-c2cc(Cl)ccc2Cl)c1` [2,2',5,5'-tetrachlorobiphenyl] to `Clc1ccc(-c2ccc(Cl)c(Cl)c2)cc1Cl` [3,3',4,4'-tetrachlorobiphenyl], the “Henry solubility constant Hcp” value rises from 0.029 to 0.1.

Compared with `Clc1cccc(Cl)c1-c1c(Cl)cccc1Cl` [2,2',6,6'-tetrachlorobiphenyl], `Clc1cccc(-c2cccc(Cl)c2Cl)c1Cl` [2,2',3,3'-tetrachlorobiphenyl] is higher in “Henry solubility constant Hcp” value: 0.018 for the first, 0.049 for the second.

First: Clc1cc(Cl)c(-c2ccccc2)c(Cl)c1 [2,4,6-trichlorobiphenyl]
Second: Clc1ccc(-c2ccccc2)cc1Cl [3,4-dichlorobiphenyl]
The “Henry solubility constant Hcp” value of the first is lower: 0.015 for the first, 0.048 for the second.

Compared with `Clc1ccc(-c2ccc(Cl)cc2)cc1` [4,4'-dichlorobiphenyl], `Clc1ccc(Cl)c(-c2ccccc2)c1` [2,5-dichlorobiphenyl] is lower in “Henry solubility constant Hcp” value: 0.05 for the first, 0.025 for the second.

First: Clc1ccccc1-c1ccccc1Cl [2,2'-dichlorobiphenyl]
Second: Clc1cc(Cl)c(-c2c(Cl)cc(Cl)cc2Cl)c(Cl)c1 [2,2',4,4',6,6'-hexachlorobiphenyl]
The “Henry solubility constant Hcp” value of the first is higher: 0.029 for the first, 0.013 for the second.
